Target: T1, LRRK2 (Homo sapiens, UniProt Q5S007, G2019S)
T1 construct: purchased Invitrogen PV4882 (lot 567054A)
Assay: In Vitro LRRK2 Assay (LabChip 3000, fluorescently-labeled peptide substrate, ATP)
Format: biochemical
Conditions: read-out: LRRK2 Ki (KI), Table 8
How it was run: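 LRRK2, fluorescent peptide substrate (diluted to 4 μM before mixing), ATP and compound were incubated 2 h in the dark, then stopped. Phosphorylated and unphosphorylated peptide were separated by capillary electrophoresis and quantified by fluorescence. Ki was fitted with a tight-binding equation including enzyme concentration, S and Km; IC50 or percent inhibition were also reported.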

T1 sequence (Q5S007 whole entry G2019S): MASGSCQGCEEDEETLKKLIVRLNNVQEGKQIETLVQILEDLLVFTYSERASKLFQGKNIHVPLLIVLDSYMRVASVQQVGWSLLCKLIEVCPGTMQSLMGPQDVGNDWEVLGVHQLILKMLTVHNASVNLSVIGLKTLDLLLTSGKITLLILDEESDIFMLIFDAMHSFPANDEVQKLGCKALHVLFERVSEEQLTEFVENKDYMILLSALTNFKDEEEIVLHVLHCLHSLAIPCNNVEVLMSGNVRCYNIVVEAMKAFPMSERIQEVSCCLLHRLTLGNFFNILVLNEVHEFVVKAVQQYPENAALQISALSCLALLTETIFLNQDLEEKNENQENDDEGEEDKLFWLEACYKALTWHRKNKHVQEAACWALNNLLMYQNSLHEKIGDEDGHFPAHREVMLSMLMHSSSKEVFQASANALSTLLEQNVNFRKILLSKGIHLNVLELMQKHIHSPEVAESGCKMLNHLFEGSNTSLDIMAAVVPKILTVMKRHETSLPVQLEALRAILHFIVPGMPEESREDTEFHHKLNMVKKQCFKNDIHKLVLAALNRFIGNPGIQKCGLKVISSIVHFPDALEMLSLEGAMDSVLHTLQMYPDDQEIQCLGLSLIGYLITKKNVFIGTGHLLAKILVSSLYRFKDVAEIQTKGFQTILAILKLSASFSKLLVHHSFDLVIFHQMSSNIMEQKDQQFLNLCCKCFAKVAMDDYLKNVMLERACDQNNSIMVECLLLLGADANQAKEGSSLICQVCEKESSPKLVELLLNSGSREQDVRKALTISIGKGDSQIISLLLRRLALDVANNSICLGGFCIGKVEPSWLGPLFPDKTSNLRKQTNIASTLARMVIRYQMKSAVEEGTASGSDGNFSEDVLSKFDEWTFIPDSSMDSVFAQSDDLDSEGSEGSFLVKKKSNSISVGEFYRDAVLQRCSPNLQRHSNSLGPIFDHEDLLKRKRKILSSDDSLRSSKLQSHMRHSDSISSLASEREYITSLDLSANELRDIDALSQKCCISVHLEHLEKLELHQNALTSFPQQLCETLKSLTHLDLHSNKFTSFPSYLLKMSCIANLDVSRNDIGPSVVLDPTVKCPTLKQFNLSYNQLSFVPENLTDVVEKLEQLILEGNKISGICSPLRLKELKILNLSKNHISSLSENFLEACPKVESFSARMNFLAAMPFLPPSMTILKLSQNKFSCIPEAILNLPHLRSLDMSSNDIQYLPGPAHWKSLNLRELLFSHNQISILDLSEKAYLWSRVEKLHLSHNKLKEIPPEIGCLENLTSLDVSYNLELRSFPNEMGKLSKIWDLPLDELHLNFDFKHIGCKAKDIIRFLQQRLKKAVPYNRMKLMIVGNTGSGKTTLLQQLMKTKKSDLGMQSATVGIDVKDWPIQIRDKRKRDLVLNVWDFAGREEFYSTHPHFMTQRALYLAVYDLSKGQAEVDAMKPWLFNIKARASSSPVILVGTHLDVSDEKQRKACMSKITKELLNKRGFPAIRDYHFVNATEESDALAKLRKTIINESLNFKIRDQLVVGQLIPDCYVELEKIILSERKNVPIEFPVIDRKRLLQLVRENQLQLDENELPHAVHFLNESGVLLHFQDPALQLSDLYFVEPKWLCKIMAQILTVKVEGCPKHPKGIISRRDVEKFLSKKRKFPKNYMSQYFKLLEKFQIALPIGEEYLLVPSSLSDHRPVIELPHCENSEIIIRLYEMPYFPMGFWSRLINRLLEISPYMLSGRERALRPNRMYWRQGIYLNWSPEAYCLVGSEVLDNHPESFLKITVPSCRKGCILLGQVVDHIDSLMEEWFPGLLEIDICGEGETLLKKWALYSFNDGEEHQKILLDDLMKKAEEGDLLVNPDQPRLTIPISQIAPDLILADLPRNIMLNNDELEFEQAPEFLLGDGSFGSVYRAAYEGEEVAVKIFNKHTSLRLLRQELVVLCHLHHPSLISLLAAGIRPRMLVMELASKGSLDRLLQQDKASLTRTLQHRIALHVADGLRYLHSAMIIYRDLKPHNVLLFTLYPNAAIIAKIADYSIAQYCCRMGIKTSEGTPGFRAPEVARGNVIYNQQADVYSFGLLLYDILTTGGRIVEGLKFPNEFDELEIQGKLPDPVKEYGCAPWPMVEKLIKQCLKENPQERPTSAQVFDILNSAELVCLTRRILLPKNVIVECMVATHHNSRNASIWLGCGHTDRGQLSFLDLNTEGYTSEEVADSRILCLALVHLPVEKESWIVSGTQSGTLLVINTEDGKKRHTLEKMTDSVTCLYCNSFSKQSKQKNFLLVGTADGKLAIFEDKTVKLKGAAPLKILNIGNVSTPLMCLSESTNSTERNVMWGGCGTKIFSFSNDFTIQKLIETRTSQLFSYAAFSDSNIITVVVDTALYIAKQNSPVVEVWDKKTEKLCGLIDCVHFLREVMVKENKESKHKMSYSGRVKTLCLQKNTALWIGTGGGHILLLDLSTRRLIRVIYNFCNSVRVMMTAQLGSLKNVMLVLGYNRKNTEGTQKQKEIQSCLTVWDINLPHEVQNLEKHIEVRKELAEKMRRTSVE

Ki [nM] | Compound
1.8 | CNc1nc(Nc2cnn(C3CCCOC3)c2C)ncc1C(F)(F)F (stereo not shown) [Example 231, N4-methyl-N2-(5-methyl-1-(tetrahydro-2H-pyran-3-yl)-1H-pyrazol-4-yl)-5-(trifluoromethyl) pyrimidine-2,4-diamine]
9.6 | Cc1c(Nc2ncc(C(F)(F)F)c(NCC3CCOCC3)n2)cnn1C [Example 232, N2-(1,5-dimethyl-1H-pyrazol-4-yl)-N4-((tetrahydro-2H-pyran-4-yl)methyl)-5-(trifluoromethyl) pyrimidine-2,4-diamine]
61 | CNc1nc(Nc2cn([C@@H]3CCN(C)C3)nc2C)ncc1C(F)(F)F [Example 233, (R)-N4-methyl-N2-(3-methyl-1-(1-methylpyrrolidin-3-yl)-1H-pyrazol-4-yl)-5-(trifluoromethyl) pyrimidine-2,4-diamine]
3.1 | CCNc1nc(Nc2cnn(CC(C)(C)O)c2Cl)ncc1C(F)(F)F [Example 234, 1-(5-chloro-4-(4-(ethylamino)-5-(trifluoromethyl)pyrimidin-2-ylamino)-1H-pyrazol-1-yl)-2-methylpropan-2-ol]
5.1 | CNc1nc(Nc2cn(CC(C)(C)O)nc2C2CC2)ncc1C(F)(F)F [Example 235, 1-(3-cyclopropyl-4-(4-(methylamino)-5-(trifluoromethyl)pyrimidin-2-ylamino)-1H-pyrazol-1-yl)-2-methylpropan-2-ol]
1.5 | CCNc1nc(Nc2cn(CC(C)(C)O)nc2C2CC2)ncc1C(F)(F)F [Example 236, 1-(3-cyclopropyl-4-(4-(ethylamino)-5-(trifluoromethyl)pyrimidin-2-ylamino)-1H-pyrazol-1-yl)-2-methylpropan-2-ol]
45 | CNC(=O)C(C)(C)n1ncc(Nc2ncc(C(F)(F)F)c(NC)n2)c1Cl [Example 237, 2-(5-chloro-4-(4-(methylamino)-5-(trifluoromethyl)pyrimidin-2-ylamino)-1H-pyrazol-1-yl)-N,2-dimethylpropan-amide]
16 | CNc1nc(Nc2cn(C3CCN(CCOC)CC3)nc2C)ncc1C(F)(F)F [Example 238, N2-(1-(1-(2-methoxyethyl)piperidin-4-yl)-3-methyl-1H-pyrazol-4-yl)-N4-methyl-5-(trifluoromethyl) pyrimidine-2,4-diamine]
6 | CNc1nc(Nc2cnn(C3CCN(CCOC)CC3)c2C)ncc1C(F)(F)F [Example 239, N2-(1-(1-(2-methoxyethyl)piperidin-4-yl)-5-methyl-1H-pyrazol-4-yl)-N4-methyl-5-(trifluoromethyl) pyrimidine-2,4-diamine]
1.8 | CNc1nc(Nc2cnn(C3CCN(C)CC3F)c2Cl)ncc1C(F)(F)F (stereo not shown) [Example 241, N2-(5-chloro-1-(3-fluoro-1-methylpiperidin-4-yl)-1H-pyrazol-4-yl)-N4-methyl-5-(trifluoromethyl) pyrimidine-2,4-diamine]
2.1 | CCN1CCC(n2ncc(Nc3ncc(C(F)(F)F)c(NC)n3)c2Cl)C(F)C1 (stereo not shown) [Example 242, N2-(5-chloro-1-(1-ethyl-3-fluoropiperidin-4-yl)-1H-pyrazol-4-yl)-N4-methyl-5-(trifluoromethyl) pyrimidine-2,4-diamine]
0.5 | CCNc1nc(Nc2cn(S(=O)(=O)CC)nc2C)ncc1C(F)(F)F [Example 243, N4-ethyl-N2-(1-(ethylsulfonyl)-3-methyl-1H-pyrazol-4-yl)-5-(trifluoromethyl) pyrimidine-2,4-diamine]
4.7 | CCNc1nc(Nc2cnn(S(=O)(=O)CC)c2C)ncc1C(F)(F)F [Example 244, N4-ethyl-N2-(1-(ethylsulfonyl)-5-methyl-1H-pyrazol-4-yl)-5-(trifluoromethyl) pyrimidine-2,4-diamine]
77.9 | CNc1nc(Nc2cnn(C)c2N(C)C)ncc1C(F)(F)F [Example 247, N2-(5-(dimethylamino)-1-methyl-1H-pyrazol-4-yl)-N4-methyl-5-(trifluoromethyl) pyrimidine-2,4-diamine]
3.3 | CCS(=O)(=O)n1cc(Nc2ncc(C(F)(F)F)c(NC)n2)c(C)n1 [Example 249, N^2-(1-(ethylsulfonyl)-3-methyl-1H-pyrazol-4-yl)-N4-methyl-5-(trifluoromethyl) pyrimidine-2,4-diamine]
12.2 | CNc1nc(Nc2cn(CC(C)(C)O)nc2C)ncc1C(F)(F)F [Example 250, 2-Methyl-1-[3-methyl-4-(4-methylamino-5-trifluoromethyl-pyrimidin-2-ylamino)-pyrazol-1-yl]-propan-2-ol]
2.2 | CCn1cc(Nc2ncc(Br)c(NC)n2)c(C)n1 [Example 253, 5-Bromo-N2-(1-ethyl-3-methyl-1H-pyrazol-4-yl)-N4-methyl-pyrimidine-2,4-diamine]
7.7 | CNc1nc(Nc2cn(CC(F)(F)F)nc2C)ncc1C(F)(F)F [Example 254, N4-Methyl-N2-[3-methyl-1-(2,2,2-trifluoro-ethyl)-1H-pyrazol-4-yl]-5-trifluoromethyl-pyrimidine-2,4-diamine]
0.7 | CNc1nc(Nc2cnn(C(F)F)c2C)ncc1Br [Example 255, 5-Bromo-N2-(1-difluoromethyl-5-methyl-1H-pyrazol-4-yl)-N4-methyl-pyrimidine-2,4-diamine]

Ki [nM] | Compound
2.2 | CNc1nc(Nc2cn(C(F)F)nc2C)ncc1Br [Example 256, 5-Bromo-N2-(1-difluoromethyl-3-methyl-1H-pyrazol-4-yl)-N4-methyl-pyrimidine-2,4-diamine]
1.5 | CCNc1nc(Nc2cnn(C)c2C)ncc1Br [Example 257, 5-Bromo-N2-(1,5-dimethyl-1H-pyrazol-4-yl)-N4-ethyl-pyrimidine-2,4-diamine]
5.7 | CCCn1ncc(Nc2ncc(Br)c(NC)n2)c1C [Example 259, 5-Bromo-N4-methyl-N2-(5-methyl-1-propyl-1H-pyrazol-4-yl)-pyrimidine-2,4-diamine]
0.3 | CNc1nc(Nc2cn(-c3ccc(Cl)cc3)nc2C)ncc1Br [Example 260, 5-Bromo-N2-[1-(4-chloro-phenyl)-3-methyl-1H-pyrazol-4-yl]-N4-methyl-pyrimidine-2,4-diamine]
1.3 | CCNc1nc(Nc2cnn(C)c2C)ncc1C(F)(F)F [Example 261, N2-(1,5-Dimethyl-1H-pyrazol-4-yl)-N4-ethyl-5-trifluoromethyl-pyrimidine-2,4-diamine]
1.3 | CCNc1nc(Nc2cn(C3CCC(=O)NC3)nc2C)ncc1C(F)(F)F (stereo not shown) [Example 262, 5-[4-(4-Ethylamino-5-trifluoromethyl-pyrimidin-2-ylamino)-3-methyl-pyrazol-1-yl]-piperidin-2-one]
1.8 | CCNc1nc(Nc2cn(-c3ccc(C(=O)N(C)C)cc3)nc2C)ncc1C(F)(F)F [Example 263, 4-[4-(4-Ethylamino-5-trifluoromethyl-pyrimidin-2-ylamino)-3-methyl-pyrazol-1-yl]-N,N-dimethyl-benzamide]
3.2 | CCNc1nc(Nc2cn(-c3ccc(S(=O)(=O)C4CC4)cc3)nc2C)ncc1C(F)(F)F [Example 264, N2-[1-(4-Cyclopropane-sulfonyl-phenyl)-3-methyl-1H-pyrazol-4-yl]-N4-ethyl-5-trifluoromethyl-pyrimidine-2,4-diamine]
4.8 | CCNc1nc(Nc2cn(-c3ccc(C#N)cc3)nc2C)ncc1C(F)(F)F [Example 265, 4-[4-(4-Ethylamino-5-trifluoromethyl-pyrimidin-2-ylamino)-3-methyl-pyrazol-1-yl]-benzonitrile]
2.1 | CCNc1nc(Nc2cn(-c3ccc(S(C)(=O)=O)cc3)nc2C)ncc1C(F)(F)F [Example 266, N4-Ethyl-N2-[1-(4-methanesulfonyl-phenyl)-3-methyl-1H-pyrazol-4-yl]-5-trifluoromethyl-pyrimidine-2,4-diamine]
0.8 | CCNc1nc(Nc2cnn(C3CCN(C(=O)C(C)C)CC3)c2C)ncc1C(F)(F)F [Example 267, 1-{4-[4-(4-Ethylamino-5-trifluoromethyl-pyrimidin-2-ylamino)-5-methyl-pyrazol-1-yl]-piperidin-1-yl}-2-methyl-propan-1-one]
7.7 | CCNc1nc(Nc2cn(C3CCN(C(=O)C(C)C)CC3)nc2C)ncc1C(F)(F)F [Example 268, 1-{4-[4-(4-Ethylamino-5-trifluoromethyl-pyrimidin-2-ylamino)-3-methyl-pyrazol-1-yl]-piperidin-1-yl}-2-methyl-propan-1-one]
9.1 | CNc1nc(Nc2cn(-c3ccncc3C)nc2C)ncc1C(F)(F)F [Example 269, N4-Methyl-N2-[3-methyl-1-(3-methyl-pyridin-4-yl)-1H-pyrazol-4-yl]-5-trifluoromethyl-pyrimidine-2,4-diamine]
17 | CNc1nc(Nc2cn(C[C@@H](C)OC)nc2C)ncc1C(F)(F)F [Example 270, N2-[1-((R)-2-Methoxy-propyl)-3-methyl-1H-pyrazol-4-yl]-N4-methyl-5-trifluoromethyl-pyrimidine-2,4-diamine]
5.1 | CNc1nc(Nc2cnn(C3CC(C)OC(C)C3)c2C)ncc1C(F)(F)F (stereo not shown) [Example 272, N2-[1-(2,6-Dimethyl-tetrahydro-pyran-4-yl)-5-methyl-1H-pyrazol-4-yl]-N4-methyl-5-trifluoromethyl-pyrimidine-2,4-diamine]
37 | CNc1nc(Nc2cn(C3CCS(=O)(=O)CC3)nc2C)ncc1C(F)(F)F [Example 273, N2-[1-(1,1-Dioxo-hexahydro-1$1%6&- thiopyran-4-yl)-3-methyl-1H-pyrazol-4-yl]-N4-mcthyl-5-trifluoromethyl-pyrimidine-2,4-diamine]
18.5 | CNc1nc(Nc2cnn([C@H](C)COC)c2C)ncc1C(F)(F)F [Example 274, N2-[1-((R)-2-Methoxy-1-methyl-ethyl)-5-methyl-1H-pyrazol-4-yl]-N4-methyl-5-trifluoromethyl-pyrimidine-2,4-diamine]
8.9 | CNc1nc(Nc2cn([C@@H](C)COC)nc2C)ncc1C(F)(F)F [Example 275, N2-[1-((S)-2-Methoxy-1-methyl-ethyl)-3-methyl-1H-pyrazol-4-yl]-N4-methyl-5-trifluoromethyl-pyrimidine-2,4-diamine]

— patent publication US8815882B2, “Pyrazole aminopyrimidine derivatives as LRRK2 modulators” (Genentech, Inc., priority 2010, dated 2014)
